Experimental findings from patent US20180267021A1, “METHODS AND DEVICES FOR ASSESSING CELL PROPERTIES UNDER CONTROLLED GAS ENVIRONMENTS” (Carnegie Mellon University, priority 2014, published 2018) are described below.

Entries after “also recorded” stand apart in the source; their conditions may differ.

Assay [1] relates to sickle RBCs. The assay is described as follows: Individual sickle RBC rheology through micro-gates under transient hypoxia, on-HU vs off-HU.
Assay [2] relates to sickle RBCs. As to the kind of experiment: Kinetics of cell sickling and unsickling under transient hypoxia, patient samples on-HU vs off-HU. It is filed as cell-based, human. The method, then:
(§1) Cell sickling was measured using a double-layer device with a cell channel (5 μm high), a gas channel (100 μm high) and an in-between PDMS film 150 μm in thickness (FIG. 1A). The O2 concentration was controlled by exchanging gas flow in the channel through the PDMS membrane that is gas-permeable (33). […] Sickle RBCs typically form spiky edges and dark coarse texture due to intracellular HbS polymerization, the visual identification of which was enhanced by a band-pass filter (FIG. 1B). Thus the sickled cells were defined as those obviously distorted from their original shape and texture under Oxy state (O2 concentration 20%) to the DeOxy state (O2 concentration <5%). […] The delay time of cell unsickling was defined as the time elapsed between the initiation of reoxygenation (ReOxy) and the point when the RBC fully recovered its pre-sickle morphology in a visibly identifiable manner.
Kinetics of individual cell sickling and unsickling under transient hypoxia conditions was quantified by the delay time and the maximum sickled fraction on 25 SCD patient samples: 7 patients without HU therapy (off-HU) and 18 patients with HU therapy (on-HU) (see patient's HU status in Materials and Methods Text). Short-term and a long-term hypoxia conditions were created to simulate normal and retarded transit scenarios in microvasculature (FIGS. 2A-B). Representative cell sickling profiles upon changes in O2 concentration are shown (FIG. 2C). Compared to the relatively long sickling process (>100 s for sickled fraction rising from zero to a saturated, maximum level), the unsickling process after ReOxy was much faster (<20 s for sickled fraction reducing from the saturated level to zero), disregarding the small discrepancy in the DeOxy and ReOxy rates (<20 s). This observation applied to all patient sample.
(§2) For the Aes-103 testing, blood samples from 3 on-HU and 3 off-HU patients were incubated with Aes-103 at different concentrations (0.5, 1, 2, and 5 mM) for one hour at 37° C. before the in vitro sickling test. […] The fractionation gradient was built up with four layers of 2.5 ml Optiprep-DPBS medium of densities of 1.081, 1.091, 1.100 and 1.111 g/ml, respectively. 1 ml blood sample was washed twice with Phosphate Buffered Saline (PBS) at 2000 rpm for 5 minutes at 21° C. and diluted into 70-80% hematocrit. […] The four fractions, Density 1 through Density 4 have mean densities of 1.086±0.005 g/ml, 1.095±0.005 g/ml, 1.105±0.005 g/ml, and >1.111 g/ml, respectively. Fractionated sickle RBCs were then suspended with RPMI-1640 containing 1% w/v Bovine Serum Albumin (BSA) (Sigma-Aldrich, St Louis, Mo.) and stored at 4° C. until shortly before use to avoid metabolic depletion.

In assay [3] the test system is sickle RBCs. The assay is described as follows: Kinetics of cell sickling of density-fractionated sickle RBC populations, on-HU vs off-HU. In kind it is cell-based, human.
Description: In order to quantify the effects of cell density on the kinetics of cell sickling and unsickling, we categorized sickle RBCs into four populations with average cell densities of 1.086±0.005 g/ml (Density 1), 1.095±0.005 g/ml (Density 2), 1.105±0.005 g/ml (Density 3), and >1.111 g/ml (Density 4) for 20 SCD samples from 6 off-HU patients and 14 on-HU patients. The majority of sickle RBCs fell within Density 2 and Density 3 (FIG. 8A). We noticed a significant difference in sickling growth curve among different density populations of individual blood samples under both short-term and long-term DeOxy states (FIGS. 8B and C). Results of delay time of cell sickling and sickled fraction were examined along with cell density and the patient's HU status. Delay time of cell sickling decreased with cell density (FIG. 5A), which can be rationalized by the hydration state of the cells (39, 40).
as §2
(§3) As Ru(dpp)3C12 is water insoluble, it was dissolved in Acetone-RPMI (volume ratio of 1:2) at 0.8 mg/ml and injected into the cell channel. […] Short-term and long-term hypoxia conditions held the durations of DeOxy state (O2 concentration<5%) about 25 s and 220 s, respectively.

For assay [4], the system named is sickle RBCs. As to the kind of experiment: Microfluidic hypoxia assay: anti-sickling effect of Aes-103 on sickle RBCs incubated in vitro. In kind it is cell-based, human. The procedure:
as §1, §2, §3

For the compound `NC(=O)NO` [HU, hydroxyurea], the “capillary obstruction ratio, on-HU vs off-HU” value in the assay on sickle RBCs [1] (7 on-HU and 7 off-HU patient samples, DeOxy state, p=0.04) is given as “significantly lower”. In the assay with sickle RBCs [1] (individual RBCs through periodic micro-gates), the “cell velocity, on-HU vs off-HU” value is on record as “lower than those for the off-HU group”. Further, the “delay time of sickling, on-HU group compared with off-HU group” value in the assay with sickle RBCs [2] (5% sickled fraction, p<0.01) is reported as “significantly longer”. In the assay on sickle RBCs [2] (10% sickled fraction, six cases, suggesting beneficial effect of HU therapy), the “delay time of cell sickling, six cases” value is listed as above 60 s. Also, the “influence of HU therapy on delay time of cell sickling to saturated sickled fraction” value in the assay on sickle RBCs [2] (long-term DeOxy state, p<0.02) was “statistically significant”. Further, in the assay on sickle RBCs [2] (long-term DeOxy state, p=0.24), the “delay time of cell unsickling, on-HU vs off-HU” value is reported as “no significant difference”. Also, in the assay on sickle RBCs [2] (short-term DeOxy state (O2 <5% for 25 s), all on-HU samples, significantly lower than off-HU (p=0.03)), the maximum sickled fraction entry was “below 15%”. In addition, the “delay time for unsickling, on-HU vs off-HU” value in the assay with sickle RBCs [3] (Densities 1 through 3, long-term DeOxy) is reported as “did not vary significantly”. In addition, in the assay with sickle RBCs [3] (Densities 3 and 4, p=0.01 and p=0.06), the “delay time of cell sickling with HU therapy, Densities 3 and 4” value is listed as “marked extension”. The “mean delay time of cell sickling, on-HU vs off-HU cases” value with sickle RBCs [3] (density-fractionated populations, short-term DeOxy, p<0.02) is reported as “statistically higher”. In the assay with sickle RBCs [3] (short-term hypoxia, particularly Densities 3 and 4 (p=0.01 and p=0.001)), the “sickled fraction with HU therapy” value was “significantly suppressed”.
Turning to `O=Cc1ccc(CO)o1` [Aes-103, 5-hydroxymethylfurfural], the “change in cell sickling from baseline” value in the assay on sickle RBCs [4] (2 mM Aes-103 incubation, each patient sample) is “significant decrease in cell sickling from its baseline”. In addition, the maximum sickled fraction in the assay with sickle RBCs [4] (5 mM Aes-103, one hour at 37° C., hypoxia 2% O2, 3 on-HU and 3 off-HU patient samples) was below 5%. For the same compound, the “sickled fraction of one patient sample” value in the assay with sickle RBCs [4] (5 mM Aes-103, one patient sample) was “nearly zero”. For the same compound, the “dependence of sickled fraction on Aes-103 concentration (anti-sickling effect)” value in the assay with sickle RBCs [4] (Aes-103 0.5-5 mM, long-term hypoxia) was “strong correlation with the drug concentration; also recorded: decreased with drug concentration; also recorded: dosage-dependent manner”.
